Assay: FIH study: single doses and seven-day courses of Compound A in healthy participants (safety, pharmacokinetics)
Type: in vivo, human
[1] = single dose 100 mg, FIH study, mean

SMILES: [2H]C([2H])([2H])CC(=O)c1cnc(NC(=O)C2CC2)cc1Nc1cccc(-c2ncn(C([2H])([2H])[2H])n2)c1OC [Compound A, N-(4-((2-Methoxy-3-(1-(methyl-d3)-1H-1,2,4-triazol-3-yl)phenyl)amino)-5-(propanoyl-3,3,3-d3)pyridin-2-yl)cyclopropanecarboxamide]
- AUC (human, in vivo, oral, seven-day course, 40 mg q12h, read-out: mean AUC from time 0 to 12 hours at steady state [AUCo-12,ss]): 3.62 µg·h/mL
- Cmax (human, in vivo, oral, single dose 100 mg, FIH study, highest individual value): 1.16 µg/mL
- AUC(0-inf) (human, in vivo, oral, single dose 100 mg, FIH study, highest individual value, read-out: AUC0-inf highest value): 13.7 µg·h/mL
- mean Cmax at steady state [Cmax,ss] (seven-day course, 40 mg q12h): 0.433 µg/mL
- tolerability of seven-day courses (seven-day courses of up to 40 mg q12h): well tolerated
- AUC0-inf averaged [1]: 11,286 ng*h/mL
- Cmax averaged [1]: 0.949 µg/mL
- safety of single doses (single doses of up to 100 mg): without clinically significant safety concerns

— patent publication US20250205211A1, “TYK2 INHIBITORS AND USES THEREOF” (Alumis Inc., priority 2022, published 2025)
